In patent US9763957B2, “Autotaxin inhibitors” (Novartis AG, priority 2013, dated 2017):

Molecular target: Recombinant human ATX (Homo sapiens (Human), UniProt Q13822)
Assay: ATX inhibition assay (choline release, Amplex Red fluorescence)
Type: biochemical
Conditions: ATX 10 nM, LPC 18:1 10 μM, 37° C., 20 min pre-incubation; mean of n≧2
Summary of the method: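 Activity was taken from the slope of resorufin fluorescence (530/590 nm, read every 2 min for 40 min at 37 °C) produced by choline liberated from 10 μM oleoyl LPC.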

SMILES | IC50
Cc1nnn(Cc2cc(Cl)ccc2/C=C/C(=O)N2CCCC(c3nc(C(C)C)no3)C2)n1 (single isomer, unassigned) [Example 34a, (R or S, E)-3-(4-Chloro-2-((5-methyl-2H-tetrazol-2-yl)methyl)phenyl)-1-(3-(3-isopropyl-1,2,4-oxadiazol-5-yl)piperidin-1-yl)prop-2-en-1-one] | 18 nM
Cc1nnn(Cc2cc(Cl)ccc2COC(=O)N2CCC(c3ncc(C)o3)CC2)n1 [Example 48, 4-Chloro-2-((5-methyl-2H-tetrazol-2-yl)methyl)benzyl 4-(5-methyloxazol-2-yl)piperidine-1-carboxylate] | 70 nM
